As a reminder, the Ki is a dissociation constant, usually derived from enzyme kinetics or from competition with a known ligand.

Eight compounds from patent US11337971B2, “Dopamine D3 receptor selective antagonists/partial agonists and uses thereof” (THE UNITED STATES OF AMERICA, AS REPRESENTED BY THE …, priority 2018, dated 2022) can be followed below.

For one assay, the target named is human D3R (Homo sapiens (Human), UniProt P35462). The experiment in a line: Radioligand competition binding, [3H]N-methylspiperone, HEK293 membranes expressing human D3R. Particulars: Table 1A; for Ki: HEK 293 cells transfected with hD3R, [3H]N-methylspiperone, read-out: D3R Ki ± SEM; for D2/D3: ratio of Ki values. As for the experimental part: (§1) Binding at dopamine D2-like receptors was determined using previously described methods. […] Upon reaching 80-90% confluence, cells were harvested using pre-mixed Earle's Balanced Salt Solution (EBSS) with […] EDTA (Life Technologies) and centrifuged at 3000 rpm for 10 min at 21° C. The supernatant was removed and the pellet was resuspended in 10 mL hypotonic lysis buffer (5 mM MgCl2.6H2O, 5 mM Tris, pH 7.4 at 4° C.) and centrifuged at 20,000 rpm for 30 min at 4° C. The pellet was then resuspended in fresh EBSS buffer made from 8.7 g/L Earle's Balanced Salts without phenol red (US Biological, Salem, Mass.), 2.2 g/L sodium bicarbonate, pH to 7.4. A Bradford protein assay (Bio-Rad, Hercules, Calif.) was used to determine the protein concentration and membranes were diluted to 500 μg/mL and stored in a −80° C. freezer for later use.
Sequence of human D3R (P35462 whole entry): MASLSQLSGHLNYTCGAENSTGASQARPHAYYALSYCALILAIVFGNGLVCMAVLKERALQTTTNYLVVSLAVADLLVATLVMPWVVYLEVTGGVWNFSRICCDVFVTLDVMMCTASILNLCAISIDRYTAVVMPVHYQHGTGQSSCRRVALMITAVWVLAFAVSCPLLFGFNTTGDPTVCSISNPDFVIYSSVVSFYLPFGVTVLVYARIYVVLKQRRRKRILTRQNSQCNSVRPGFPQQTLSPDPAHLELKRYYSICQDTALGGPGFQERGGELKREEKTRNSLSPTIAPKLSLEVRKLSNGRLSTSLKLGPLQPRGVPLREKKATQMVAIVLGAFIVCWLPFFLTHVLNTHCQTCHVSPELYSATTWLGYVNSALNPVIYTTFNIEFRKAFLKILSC
(§2) Radioligand competition binding experiments were conducted using thawed membranes. Test compounds were freshly dissolved in 30% DMSO and 70% H2O to a stock concentration of 100 μM. To assist the solubilization of free-base compounds, 10 μl of glacial acetic acid was added along with the DMSO. Each test compound was then diluted into 13 half-log serial dilutions using 30% DMSO vehicle; final test concentrations ranged from 10 μM to 10 pM. Previously frozen membranes were diluted in fresh EBSS to a 100 μg/mL (for hD2R or hD3R) or 200 μg/mL (hD4R) stock for binding. […] buffer with 0.2 mM sodium metabisulfite, 50 μl of diluted test compound, 100 μl of membranes (10 μg total protein for hD2R or hD3R, 20 μg total protein for hD4R), and 50 μl of [^3H]N-methylspiperone (0.4 nM final concentration; Perkin Elmer). Nonspecific binding was determined using 10 μM butaclamol (Sigma-Aldrich, St. Louis, Mo.) and total binding was determined with 30% DMSO vehicle. All compound dilutions were tested in triplicate and the reaction incubated for one hour at room temperature. The reaction was terminated by filtration through Whatman GF/B filters, presoaked for one hour in 0.5% polyethylenimine, using a Brandel R48 filtering manifold (Brandel Instruments, Gaithersburg, Md.). The filters were washed 3 times with 3 mL of ice cold EBSS buffer and transferred to scintillation vials. […] IC50 values for each compound were determined from dose-response curves and Ki values were calculated using the Cheng-Prusoff equation; these analyses were performed using GraphPad Prism version 5.00 for Windows (GraphPad Software, San Diego, Calif.). Reported Ki values were determined from least three independent experiments.
(§3) The binding affinities of the compounds were evaluated by performing competition binding studies with [^3H]N-methylspiperone using membranes prepared from HEK293 cells expressing either the human D2R or D3R.

For a further assay, the target named is human D2R (Homo sapiens (Human), UniProt P14416). Nature of the assay: Radioligand competition binding, [3H]N-methylspiperone, HEK293 membranes expressing human D2R. Particulars: Table 1A; HEK 293 cells transfected with hD2LR, [3H]N-methylspiperone; read-out: D2R Ki ± SEM. The protocol: as §1, §2, §3
Sequence of human D2R (P14416 whole entry): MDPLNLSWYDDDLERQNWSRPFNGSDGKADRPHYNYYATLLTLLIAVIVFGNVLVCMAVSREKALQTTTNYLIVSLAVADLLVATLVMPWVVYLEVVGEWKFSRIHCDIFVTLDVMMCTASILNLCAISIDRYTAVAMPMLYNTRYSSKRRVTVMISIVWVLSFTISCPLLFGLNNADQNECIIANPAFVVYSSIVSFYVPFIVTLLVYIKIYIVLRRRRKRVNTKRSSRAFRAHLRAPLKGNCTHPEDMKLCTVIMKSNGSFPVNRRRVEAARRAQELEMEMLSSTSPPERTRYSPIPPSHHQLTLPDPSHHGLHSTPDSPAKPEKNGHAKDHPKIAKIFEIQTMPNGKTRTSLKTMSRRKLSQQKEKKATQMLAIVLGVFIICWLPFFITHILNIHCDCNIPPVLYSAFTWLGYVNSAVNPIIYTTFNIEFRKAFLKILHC
A general note: Displacement assays read how much labelled ligand stays bound in the presence of the test substance.

The target of the next assay is human D4R (Homo sapiens (Human), UniProt P21917). The experiment in a line: Radioligand competition binding, [3H]N-methylspiperone, HEK293 membranes expressing human D4R. As to conditions: Table 1A; for Ki: [3H]N-methylspiperone, read-out: D4R Ki ± SEM; for D4/D2 / D4/D3: ratio of Ki values. As for the experimental part: Binding at dopamine D2-like receptors was determined using previously described methods. (Chen et al. “Tranylcypromine substituted cis-hydroxycyclobutylnaphthamides as potent and selective dopamine D(3) receptor antagonists.” J. Med. Chem. 2014, 57, 4962-4968) Membranes were prepared from HEK293 cells expressing human D2R, D3R or D4R, grown in a 50:50 mix of DMEM and Ham's F12 culture media, supplemented with 20 mM HEPES, 2 mM L-glutamine, 0.1 mM non-essential amino acids, 1× antibiotic/antimycotic, 10% heat-inactivated fetal bovine serum, and 200 μg/mL hygromycin (Life Technologies, Grand Island, N.Y.) and kept in an incubator at 37° C. and 5% CO2. Upon reaching 80-90% confluence, cells were harvested using pre-mixed Earle's Balanced Salt Solution (EBSS) with […] EDTA (Life Technologies) and centrifuged at 3000 rpm for 10 min at 21° C. The supernatant was removed and the pellet was resuspended in 10 mL hypotonic lysis buffer (5 mM MgCl2.6H2O, 5 mM Tris, pH 7.4 at 4° C.) and centrifuged at 20,000 rpm for 30 min at 4° C. The pellet was then resuspended in fresh EBSS buffer made from 8.7 g/L Earle's Balanced Salts without phenol red (US Biological, Salem, Mass.), 2.2 g/L sodium bicarbonate, pH to 7.4. A Bradford protein assay (Bio-Rad, Hercules, Calif.) was used to determine the protein concentration and membranes were diluted to 500 μg/mL and stored in a −80° C. freezer for later use.
Sequence of human D4R (P21917 whole entry): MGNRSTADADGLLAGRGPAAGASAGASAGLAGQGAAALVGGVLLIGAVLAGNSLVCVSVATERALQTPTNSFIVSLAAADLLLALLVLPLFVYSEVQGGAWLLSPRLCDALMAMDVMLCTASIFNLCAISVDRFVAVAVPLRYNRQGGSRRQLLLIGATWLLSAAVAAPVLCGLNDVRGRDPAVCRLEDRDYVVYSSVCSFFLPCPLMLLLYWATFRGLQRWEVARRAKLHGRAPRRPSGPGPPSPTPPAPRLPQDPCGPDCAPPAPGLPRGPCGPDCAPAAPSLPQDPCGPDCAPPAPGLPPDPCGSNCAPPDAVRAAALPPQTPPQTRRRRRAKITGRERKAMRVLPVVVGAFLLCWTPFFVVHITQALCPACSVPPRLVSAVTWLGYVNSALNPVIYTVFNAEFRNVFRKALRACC
Radioligand competition binding experiments were conducted using thawed membranes. Test compounds were freshly dissolved in 30% DMSO and 70% H2O to a stock concentration of 100 μM. To assist the solubilization of free-base compounds, 10 μl of glacial acetic acid was added along with the DMSO. Each test compound was then diluted into 13 half-log serial dilutions using 30% DMSO vehicle; final test concentrations ranged from 10 μM to 10 pM. Previously frozen membranes were diluted in fresh EBSS to a 100 μg/mL (for hD2R or hD3R) or 200 μg/mL (hD4R) stock for binding. Radioligand competition experiments were conducted in glass tubes containing 300 μl fresh EBSS buffer with 0.2 mM sodium metabisulfite, 50 μl of diluted test compound, 100 μl of membranes (10 μg total protein for hD2R or hD3R, 20 μg total protein for hD4R), and 50 μl of [^3H]N-methylspiperone (0.4 nM final concentration; Perkin Elmer). Nonspecific binding was determined using 10 μM butaclamol (Sigma-Aldrich, St. Louis, Mo.) and total binding was determined with 30% DMSO vehicle. All compound dilutions were tested in triplicate and the reaction incubated for one hour at room temperature. The reaction was terminated by filtration through Whatman GF/B filters, presoaked for one hour in 0.5% polyethylenimine, using a Brandel R48 filtering manifold (Brandel Instruments, Gaithersburg, Md.). The filters were washed 3 times with 3 mL of ice cold EBSS buffer and transferred to scintillation vials. 3 mL CytoScint liquid scintillation cocktail (MP Biomedicals, Solon, Ohio) was added and vials were counted using a Perkin Elmer Tri-Carb 2910 TR liquid scintillation counter (Waltham, Mass.). IC50 values for each compound were determined from dose-response curves and Ki values were calculated using the Cheng-Prusoff equation; these analyses were performed using GraphPad Prism version 5.00 for Windows (GraphPad Software, San Diego, Calif.). Reported Ki values were determined from least three independent experiments.

As to `CCc1cccc(N2CCN(C/C=C/CNC(=O)c3nc(C)c[nH]3)CC2)c1Cl` [Compound 35, (E)-N-(4-(4-(2-Chloro-3-ethylphenyl)piperazin-1-yl)but-2-en-1-yl)-4-methyl-1H-imidazole-2-carboxamide], on human D3R, the Ki worked out at 1.28 ± 0.22 nM and the D2/D3 is listed as 12.6. In addition, at human D2R, the Ki worked out at 16.1 ± 1.2 nM. At human D4R, the Ki was determined as 503 ± 157 nM, the D4/D2 is listed as 31.2 and the D4/D3 came to 393.

For the compound `CCc1cccc(N2CCN(CCCCNC(=O)c3cn4ccccc4n3)CC2)c1Cl` [Compound 22, N-(4-(4-(2-chloro-3-ethylphenyl)piperazin-1-yl)butyl)imidazo[1,2-a]pyridine-2-carboxamide], at human D3R, the Ki worked out at 0.33 ± 0.085 nM and the D2/D3 turned out to be 17.1. At human D2R, the Ki turned out to be 5.64 ± 0.98 nM. At human D4R, the inhibition constant Ki was found to be 819 ± 175 nM, the D4/D2 turned out to be 145.2 and the D4/D3 was 2482.

For `CCc1c[nH]c(C(=O)NCCCCN2CCN(c3cccc(CC)c3Cl)CC2)n1` [Compound 25, N-(4-(4-(2-Chloro-3-ethylphenyl)piperazin-1-yl)butyl)-4-ethyl-1H-imidazole-2-carboxamide], on human D3R, the Ki is 1.14 ± 0.17 nM and the D2/D3 stood at 11.0. Moreover, on human D2R, the Ki was found to be 12.5 ± 1.07 nM. On human D4R, the inhibition constant (Ki) worked out at 500 ± 30.9 nM, the D4/D2 amounted to 40.0 and the D4/D3 was 439.

For the compound `CCc1cccc(N2CCN(CCC(O)CNC(=O)c3cc4ccccc4[nH]3)CC2)c1Cl` (stereo not drawn) [Compound 40, N-(4-(4-(2-Chloro-3-ethylphenyl)piperazin-1-yl)-2-hydroxybutyl)-1H-indole-2-carboxamide], on human D3R, the Ki was 0.2 ± 0.018 nM and the D2/D3 came out at 34.2. The Ki on human D2R turned out to be 6.83 ± 0.53 nM. Also, on human D4R, the inhibition constant Ki turned out to be 305 ± 70.5 nM, the D4/D2 was determined as 44.7 and the D4/D3 amounted to 1525.

As to `CCc1cccc(N2CCN(CC(O)CCNC(=O)c3nc(C)c[nH]3)CC2)c1Cl` (stereo not drawn) [Compound 27, N-(4-(4-(2-Chloro-3-ethylphenyl)piperazin-1-yl)-3-hydroxybutyl)-4-methyl-1H-imidazole-2-carboxamide], at human D3R, the Ki is 11.2 ± 2.66 nM and the D2/D3 was 13.4. Further, at human D2R, the Ki turned out to be 150 ± 13.1 nM. On human D4R, the Ki was found to be 1960 ± 344 nM, the D4/D2 was 13.1 and the D4/D3 turned out to be 175.

For `CCc1cccc(N2CCN(CCCCNC(=O)c3nc(C)c[nH]3)CC2)c1Cl` [Compound 26, N-(4-(4-(2-Chloro-3-ethylphenyl)piperazin-1-yl)butyl)-4-methyl-1H-imidazole-2-carboxamide], on human D3R, the inhibition constant (Ki) stood at 0.62 ± 0.096 nM and the D2/D3 is recorded as 19.7. Also, the Ki at human D2R came out at 12.2 ± 2.58 nM. At human D4R, the inhibitory constant (Ki) was found to be 529 ± 42.3 nM, the D4/D2 is reported as 43.4 and the D4/D3 is 853.

Turning to `CCc1cccc(N2CCN(CCCCNC(=O)c3c(C)nc4sccn34)CC2)c1Cl` [Compound 24, N-(4-(4-(2-chloro-3-ethylphenyl)piperazin-1-yl)butyl)-6-methylimidazo[2,1-b]thiazole-5-carboxamide], at human D3R, the Ki worked out at 0.94 ± 0.13 nM and the D2/D3 is recorded as 4.9. On human D2R, the Ki amounted to 4.65 ± 1.24 nM. At human D4R, the Ki was 143 ± 3.18 nM, the D4/D2 came out at 30.8 and the D4/D3 came to 152.

On to `CCc1cccc(N2CCN(CC(O)CCNC(=O)c3cn4ccccc4n3)CC2)c1Cl` (stereo not drawn) [Compound 23, N-(4-(4-(2-Chloro-3-ethylphenyl)piperazin-1-yl)-3-hydroxybutyl)imidazo[1,2-a]pyridine-2-carboxamide], for which, on human D3R, the Ki was found to be 4.23 ± 0.84 nM and the D2/D3 is on record as 45.6. For the same compound, the Ki at human D2R was determined as 193 ± 40.5 nM. Further, on human D4R, the Ki is 11300 nM, the D4/D2 stood at 58.5 and the D4/D3 came to 2671.
